Laboratory results from US11247983B2, “Compounds and methods for inhibiting JAK” (Dizal (Jiangsu) Pharmaceutical Co., Ltd., priority 2015, dated 2022).

Tests used:
[1] = test system: pSTAT3 (Y705) in LG1049 tumors; test: pSTAT3 levels in LG1049 tumor lysates (Western blot, Example 72); format: in vivo, mice; settings: Example 32 25 mg/kg BID, 5 days of treatment, 4H after the final dose
Description: MATERIALS AND METHODS: LG1049 tumor fragments were implanted subcutaneously in female NSG mice (JAX Stock No. 005557). Once tumor volumes reached ˜125-275 mm^3, mice were randomized into 5 groups (10 mice/group, average tumor volume 189 mm^3, range 138-253 mm^3).

[2] = test system: LG1049 non-small cell lung cancer PDX tumor xenografts; test: In vivo efficacy in the LG1049 xenograft PDX model (Example 72)
Protocol: SUMMARY: LG1049 non-small cell lung cancer PDX tumor xenografts were grown subcutaneously in female NSG mice. […] Tumor volume was measured twice a week.
(§1) MATERIALS AND METHODS: LG1049 tumor fragments were implanted subcutaneously in female NSG mice (JAX Stock No. 005557).

[3] = test system: NCI-H1975 tumor xenografts; test: In vivo efficacy of intermittent Example 32 dosing schedules in the H1975 xenograft model (Example 73); design: species or system mice; settings: oral, 19 to 29 days; osimertinib 2.5 mg/kg QD, Example 32 12.5, 25 or 50 mg/kg BID on continuous or intermittent schedules; combination compared to osimertinib alone, single agent relative to vehicle
Protocol: (§2) Tumor volume was measured twice a week.
MATERIALS AND METHODS: NCI-H1975 cells (a human NSCLC cell line with L858R and T790M mutations in the EGFR gene), were implanted subcutaneously in female NCr nude mice (Taconic Laboratories), 3×10^6 cells/mouse.

[4] = test system: NCI-H1650 tumor xenografts; test: In vivo efficacy in the H1650 xenograft model (Example 71); design: species or system mice; settings: oral, 21 days; gefitinib 6.25 mg/kg QD, Example 32 25 or 50 mg/kg BID; combination compared to single agent gefitinib
Protocol: as §2

[5] = test system: NCI-H1975 tumor xenografts; test: In vivo efficacy in the H1975 xenograft model (Example 69); design: species or system mice; settings: oral, 18 days; osimertinib 2.5 mg/kg QD, Example 32 12.5, 25 or 50 mg/kg BID; combination compared to osimertinib alone, single agent relative to vehicle
Protocol: as §2

[6] = test system: pSTAT3 (Y705) in NCI-H1650 tumors; test: pSTAT3 levels in NCI-H1650 tumor lysates (Western blot, Example 71); format: in vivo, mice; settings: measured after one day of treatment
Protocol: Twenty-three days after cell implantation, the mice were randomized into 6 groups (9 mice/group, average tumor volume 257 mm^3, range 205-303 mm^3). […] Drug levels in plasma were measured by LC/MS, using a Linear Ion Trap Quadrupole LC/MS/MS Mass Spectrometer (QTRAP 5500 model 1024945-BB, AB Sciex Instruments), with separation on a Waters Xbridge C18 column.

[7] = test system: pSTAT3 (Y705) in PC-9 tumors; test: pSTAT3 (Y705) levels in PC-9 tumor lysates (Western blot, Example 70); format: in vivo, mice; settings: Example 32 12.5 and 50 mg/kg BID with gefitinib, last day of treatment, 2, 8 and 24 hours after the AM dose
[8] = test system: pSTAT3 (Y705) in NCI-H1975 tumors; test: pSTAT3 (Y705) levels in NCI-H1975 tumor lysates (pharmacodynamics, Example 69); format: in vivo, mice; settings: Example 32 12.5, 25, 50 mg/kg BID, after one day of treatment, samples 2, 8 and 24 hours after the AM dose
Protocol: MATERIALS AND METHODS: NCI-H1975 cells (a human NSCLC cell line with L858R and T790M mutations in the EGFR gene) tumor cells were implanted subcutaneously in female NCr nude mice (Taconic Laboratories), 3×10^6 cells/mouse. […] Drug levels in plasma were measured by LC/MS, using a Linear Ion Trap Quadrupole LC/MS/MS Mass Spectrometer (QTRAP 5500 model 1024945-BB, AB Sciex Instruments), with separation on a Waters Xbridge C18 column.

[9] = test system: pEGFR (pY1173) in LG1049 tumors; test: pEGFR levels in LG1049 tumor lysates (Western blot, Example 72); format: in vivo, mice; settings: osimertinib 25 mg/kg QD, 5 days of treatment, 4H after the final dose
Description: as §1

SMILES | knockdown of pSTAT3 in tumors (FIG. 30) [1] | body weight (FIG. 29) ([2]; mouse, in vivo) | antitumor activity / tumor regression (tumor volume, FIG. 28) ([2]; oral, osimertinib 25 mg/kg QD 28 days, Example 32 25 mg/kg BID (18 days as single agent), combination compared to osimertinib alone, single agent relative to vehicle) | antitumor activity (tumor volume, FIG. 31A-31E) [3] | antitumor activity (tumor volume, FIG. 25) [4] | antitumor activity (tumor volume, FIG. 19) [5] | knockdown of pSTAT3 in tumors (FIG. 27) [6] | duration of pSTAT3 knockdown in tumors (FIG. 24) [7] | pSTAT3 knockdown in tumors (FIG. 21) [8] | body weight (FIG. 29) ([2]; LG1049 tumor bearing NSG mice, weight loss attributed to tumor growth) | tumor regrowth when treatment was stopped after 28 days ([2]; after 28 days of dosing) | knockdown of pEGFR in tumors (FIG. 30) [9]
COc1nn(C)cc1Nc1nccc(-c2c[nH]c3c(NC(=O)[C@@H](C)N4CCN(C)CC4)cccc23)n1 [Example 32, (2R)-N-(3-{2-[(3-methoxy-1-methyl-1H-pyrazol-4-yl)amino]pyrimidin-4-yl}-1H-indol-7-yl)-2-(4-methylpiperazin-1-yl)propanamide] | robust knockdown | significant weight loss | no significant activity relative to vehicle control treatment | no significant activity relative to vehicle control treatment | only modest antitumor activity | only weak antitumor activity | Knockdown of pSTAT3 was observed | dose dependent increase in the duration of pSTAT3 knockdown | dose dependent increase in pSTAT3 knockdown | – | – | –
C=CC(=O)Nc1cc(Nc2nccc(-c3cn(C)c4ccccc34)n2)c(OC)cc1N(C)CCN(C)C [osimertinib, reference compound] | – | – | – | – | – | – | – | – | – | lack of significant weight loss | tumors rapidly regrew | robust knockdown
